Values after ≈ are worked out from the molar mass of the structure shown.
What was measured:
Type in all cases: functional
Aspergillus tubingensis [1] = assay: Antifungal activity against Aspergillus tubingensis isolate CM-4000 after 48 hrs by EUCAST broth dilution method; settings: isolate CM-4000, 48 h
Aspergillus tubingensis [2] = assay: Antifungal activity against Aspergillus tubingensis isolate CM-4897 obtained from blood culture after 48 hrs by EUCAST broth dilution method; settings: isolate CM-4897, 48 h
Aspergillus niger [3] = assay: Antifungal activity against Aspergillus niger isolate CM-3551 obtained from respiratory tract infection of patient after 48 hrs by EUCAST broth dilution method; settings: isolate CM-3551, 48 h
Aspergillus niger [4] = assay: Antifungal activity against Aspergillus niger isolate CM-3236 obtained from respiratory tract infection of patient after 48 hrs by EUCAST broth dilution method; settings: isolate CM-3236, 48 h
Aspergillus niger [5] = assay: Antifungal activity against Aspergillus niger isolate CM-3586 obtained from catheter of patient after 48 hrs by EUCAST broth dilution method; settings: isolate CM-3586, 48 h
Aspergillus tubingensis [6] = assay: Antifungal activity against Aspergillus tubingensis isolate CM-4264 obtained from blood culture after 48 hrs by EUCAST broth dilution method; settings: isolate CM-4264, 48 h
Aspergillus tubingensis [7] = assay: Antifungal activity against Aspergillus tubingensis isolate CM-3177 obtained from respiratory tract infection of patient after 48 hrs by EUCAST broth dilution method; settings: isolate CM-3177, 48 h
Aspergillus niger [8] = assay: Antifungal activity against Aspergillus niger isolate CM-3672 obtained from cutaneous layer of patient after 48 hrs by EUCAST broth dilution method; settings: isolate CM-3672, 48 h
Aspergillus niger [9] = assay: Antifungal activity against Aspergillus niger isolate CM-4213 obtained from respiratory tract infection of patient after 48 hrs by EUCAST broth dilution method; settings: isolate CM-4213, 48 h
Aspergillus tubingensis [10] = assay: Antifungal activity against Aspergillus tubingensis isolate CM-4003 after 48 hrs by EUCAST broth dilution method; settings: isolate CM-4003, 48 h
Aspergillus tubingensis [11] = assay: Antifungal activity against Aspergillus tubingensis isolate CM-3507 obtained from respiratory tract infection of patient after 48 hrs by EUCAST broth dilution method; settings: isolate CM-3507, 48 h
Aspergillus foetidus [12] = assay: Antifungal activity against Aspergillus foetidus isolate CM-4995 obtained from prosthesis after 48 hrs by EUCAST broth dilution method; settings: isolate CM-4995, 48 h
Aspergillus niger [13] = assay: Antifungal activity against Aspergillus niger isolate CM-3506 obtained from respiratory tract infection of patient after 48 hrs by EUCAST broth dilution method; settings: isolate CM-3506, 48 h
Aspergillus tubingensis [14] = assay: Antifungal activity against Aspergillus tubingensis isolate CM-4688 obtained from respiratory tract infection of patient after 48 hrs by EUCAST broth dilution method; settings: isolate CM-4688, 48 h
Aspergillus tubingensis [15] = assay: Antifungal activity against Aspergillus tubingensis isolate CM-4296 obtained from respiratory tract infection of patient after 48 hrs by EUCAST broth dilution method; settings: isolate CM-4296, 48 h
Aspergillus niger [16] = assay: Antifungal activity against Aspergillus niger isolate CM-3636 obtained from respiratory tract infection of patient after 48 hrs by EUCAST broth dilution method; settings: isolate CM-3636, 48 h
Aspergillus niger [17] = assay: Antifungal activity against Aspergillus niger isolate CM-4004 obtained from after 48 hrs by EUCAST broth dilution method; settings: isolate CM-4004, 48 h
Aspergillus tubingensis [18] = assay: Antifungal activity against Aspergillus tubingensis isolate CM-4005 after 48 hrs by EUCAST broth dilution method; settings: isolate CM-4005, 48 h
Aspergillus niger [19] = assay: Antifungal activity against Aspergillus niger isolate CM-3257 obtained from respiratory tract infection of patient after 48 hrs by EUCAST broth dilution method; settings: isolate CM-3257, 48 h
Aspergillus niger [20] = assay: Antifungal activity against Aspergillus niger isolate CM-4262 after 48 hrs by EUCAST broth dilution method Ophthalmic; settings: isolate CM-4262, 48 h
Aspergillus tubingensis [21] = assay: Antifungal activity against Aspergillus tubingensis isolate CM-3810 obtained from respiratory tract infection of patient after 48 hrs by EUCAST broth dilution method; settings: isolate CM-3810, 48 h
Aspergillus tubingensis [22] = assay: Antifungal activity against Aspergillus tubingensis isolate CM-3125 obtained from respiratory tract infection of patient after 48 hrs by EUCAST broth dilution method; settings: isolate CM-3125, 48 h
Aspergillus tubingensis [23] = assay: Antifungal activity against Aspergillus tubingensis isolate CM-4899 obtained from respiratory tract infection of patient after 48 hrs by EUCAST broth dilution method; settings: isolate CM-4899, 48 h
Aspergillus foetidus [24] = assay: Antifungal activity against Aspergillus foetidus isolate CM-5264 obtained from respiratory tract infection of patient after 48 hrs by EUCAST broth dilution method; settings: isolate CM-5264, 48 h
Aspergillus tubingensis [25] = assay: Antifungal activity against Aspergillus tubingensis isolate CM-3585 after 48 hrs by EUCAST broth dilution method; settings: isolate CM-3585, 48 h
Aspergillus tubingensis [26] = assay: Antifungal activity against Aspergillus tubingensis isolate CM-3654 obtained from blood culture after 48 hrs by EUCAST broth dilution method; settings: isolate CM-3654, 48 h
Aspergillus foetidus [27] = assay: Antifungal activity against Aspergillus foetidus isolate CM-4002 after 48 hrs by EUCAST broth dilution method; settings: isolate CM-4002, 48 h
Aspergillus niger [28] = assay: Antifungal activity against Aspergillus niger isolate CM-5095 obtained from respiratory tract infection of patient after 48 hrs by EUCAST broth dilution method; settings: isolate CM-5095, 48 h
Aspergillus tubingensis [29] = assay: Antifungal activity against Aspergillus tubingensis isolate CM-5094 obtained from respiratory tract infection of patient after 48 hrs by EUCAST broth dilution method; settings: isolate CM-5094, 48 h
Aspergillus tubingensis [30] = assay: Antifungal activity against Aspergillus tubingensis isolate CM-4001 after 48 hrs by EUCAST broth dilution method; settings: isolate CM-4001, 48 h
Aspergillus niger [31] = assay: Antifungal activity against Aspergillus niger isolate CM-4316 obtained from respiratory tract infection of patient after 48 hrs by EUCAST broth dilution method; settings: isolate CM-4316, 48 h
Aspergillus niger [32] = assay: Antifungal activity against Aspergillus niger isolate CM-3641 obtained from respiratory tract infection of patient after 48 hrs by EUCAST broth dilution method; settings: isolate CM-3641, 48 h
Aspergillus tubingensis [33] = assay: Antifungal activity against Aspergillus tubingensis isolate CM-4352 obtained from respiratory tract infection of patient after 48 hrs by EUCAST broth dilution method; settings: isolate CM-4352, 48 h
Aspergillus tubingensis [34] = assay: Antifungal activity against Aspergillus tubingensis isolate CM-3123 obtained from respiratory tract infection of patient after 48 hrs by EUCAST broth dilution method; settings: isolate CM-3123, 48 h

Structure (SMILES)	MIC (Aspergillus tubingensis [1]) [µg/mL]	MIC (Aspergillus tubingensis [2]) [µg/mL]	MIC (Aspergillus niger [3]) [µg/mL]	MIC (Aspergillus niger [4]) [µg/mL]	MIC (Aspergillus niger [5]) [µg/mL]	MIC (Aspergillus tubingensis [6]) [µg/mL]	MIC (Aspergillus tubingensis [7]) [µg/mL]	MIC (Aspergillus niger [8]) [µg/mL]	MIC (Aspergillus niger [9]) [µg/mL]	MIC (Aspergillus tubingensis [10]) [µg/mL]	MIC (Aspergillus tubingensis [11]) [µg/mL]	MIC (Aspergillus foetidus [12]) [µg/mL]	MIC (Aspergillus niger [13]) [µg/mL]	MIC (Aspergillus tubingensis [14]) [µg/mL]	MIC (Aspergillus tubingensis [15]) [µg/mL]	MIC (Aspergillus niger [16]) [µg/mL]	MIC (Aspergillus niger [17]) [µg/mL]	MIC (Aspergillus tubingensis [18]) [µg/mL]	MIC (Aspergillus niger [19]) [µg/mL]	MIC (Aspergillus niger [20]) [µg/mL]	also measured
CCC(C)n1ncn(-c2ccc(N3CCN(c4ccc(OCC5COC(Cn6cncn6)(c6ccc(Cl)cc6Cl)O5)cc4)CC3)cc2)c1=O (stereo not drawn) [ITRACONAZOLE]	1 (≈ 1.42 µM)	1 (≈ 1.42 µM)	4.75 (≈ 6.73 µM)	0.5 (≈ 0.709 µM)	0.5 (≈ 0.709 µM)	0.5 (≈ 0.709 µM)	1 (≈ 1.42 µM)	0.5 (≈ 0.709 µM)	0.14 (≈ 0.198 µM)	16 (≈ 22.7 µM)	0.5 (≈ 0.709 µM)	1 (≈ 1.42 µM)	0.5 (≈ 0.709 µM)	3.67 (≈ 5.2 µM)	0.75 (≈ 1.06 µM)	0.5 (≈ 0.709 µM)	1 (≈ 1.42 µM)	16 (≈ 22.7 µM)	1 (≈ 1.42 µM)	1 (≈ 1.42 µM)	MIC (Aspergillus tubingensis [21]): 4 µg/mL (≈ 5.67 µM); MIC (Aspergillus tubingensis [22]): 0.5 µg/mL (≈ 0.709 µM); MIC (Aspergillus tubingensis [23]): 1 µg/mL (≈ 1.42 µM); MIC (Aspergillus foetidus [24]): 16 µg/mL (≈ 22.7 µM); MIC (Aspergillus tubingensis [25]): 0.5 µg/mL (≈ 0.709 µM); MIC (Aspergillus tubingensis [26]): 1 µg/mL (≈ 1.42 µM); MIC (Aspergillus foetidus [27]): 1 µg/mL (≈ 1.42 µM); MIC (Aspergillus niger [28]): 0.5 µg/mL (≈ 0.709 µM); MIC (Aspergillus tubingensis [29]): 0.5 µg/mL (≈ 0.709 µM); MIC (Aspergillus tubingensis [30]): 1 µg/mL (≈ 1.42 µM); MIC (Aspergillus niger [31]): 0.5 µg/mL (≈ 0.709 µM); MIC (Aspergillus niger [32]): 0.5 µg/mL (≈ 0.709 µM); MIC (Aspergillus tubingensis [33]): 1 µg/mL (≈ 1.42 µM); MIC (Aspergillus tubingensis [34]): 11 µg/mL (≈ 15.6 µM)
CC[C@@H]([C@H](C)O)n1ncn(-c2ccc(N3CCN(c4ccc(OC[C@@H]5CO[C@@](Cn6cncn6)(c6ccc(F)cc6F)C5)cc4)CC3)cc2)c1=O [POSACONAZOLE]	0.25 (≈ 0.357 µM)	0.25 (≈ 0.357 µM)	0.12 (≈ 0.171 µM)	0.12 (≈ 0.171 µM)	0.12 (≈ 0.171 µM)	0.12 (≈ 0.171 µM)	0.25 (≈ 0.357 µM)	0.19 (≈ 0.271 µM)	0.03 (≈ 0.0428 µM)	0.25 (≈ 0.357 µM)	0.15 (≈ 0.214 µM)	0.16 (≈ 0.228 µM)	0.12 (≈ 0.171 µM)	0.25 (≈ 0.357 µM)	0.19 (≈ 0.271 µM)	0.19 (≈ 0.271 µM)	0.25 (≈ 0.357 µM)	0.5 (≈ 0.713 µM)	0.25 (≈ 0.357 µM)	0.25 (≈ 0.357 µM)	MIC (Aspergillus tubingensis [21]): 0.12 µg/mL (≈ 0.171 µM); MIC (Aspergillus tubingensis [22]): 0.12 µg/mL (≈ 0.171 µM); MIC (Aspergillus tubingensis [23]): 0.25 µg/mL (≈ 0.357 µM); MIC (Aspergillus foetidus [24]): 0.5 µg/mL (≈ 0.713 µM); MIC (Aspergillus tubingensis [25]): 0.12 µg/mL (≈ 0.171 µM); MIC (Aspergillus tubingensis [26]): 0.25 µg/mL (≈ 0.357 µM); MIC (Aspergillus foetidus [27]): 0.12 µg/mL (≈ 0.171 µM); MIC (Aspergillus niger [28]): 0.12 µg/mL (≈ 0.171 µM); MIC (Aspergillus tubingensis [29]): 0.06 µg/mL (≈ 0.0856 µM); MIC (Aspergillus tubingensis [30]): 0.25 µg/mL (≈ 0.357 µM); MIC (Aspergillus niger [31]): 0.125 µg/mL (≈ 0.178 µM); MIC (Aspergillus niger [32]): 0.125 µg/mL (≈ 0.178 µM); MIC (Aspergillus tubingensis [33]): 0.25 µg/mL (≈ 0.357 µM); MIC (Aspergillus tubingensis [34]): 0.25 µg/mL (≈ 0.357 µM)
